Measured values published in ChEMBL document CHEMBL1201862, “PubChem BioAssay data set” (2004).
Calls of active or inactive are those of the source.

Key:
[1] = system: HEK293; assay: Fluorescence-based counterscreen for potentiators or agonists of NPY-Y2: cell-based high-throughput dose response assay to identify inhibitors of cyclic nucleotide gated ion channel (CNGC) activity. In this assay, the parental HEK293 cell line transfected with a cyclic-nucleotide gated ion channel (CNGC)-based cAMP sensor is used to measure inhibition of isoproterenol-induced CNGC activity by test compound.; type: functional; details: Homo sapiens
[2] = target: T1, Neuropeptide Y receptor type 2 (Homo sapiens, UniProt P49146); assay: Fluorescence-based cell-based high-throughput dose response assay for agonists of NPY-Y2. [Related pubchem assays: 1703 (Screening assay (CNGC inhibitors).), 1359 (Screening assay (NPY-Y2 potentiators or agonists).), 1304 (Screening assay (NPY-Y1 potentiators or agonists).), 1710 (Screening assay (NPY-Y2 agonists).), 1791 (Summary AID.)]; type: functional
T1 sequence (P49146 whole entry): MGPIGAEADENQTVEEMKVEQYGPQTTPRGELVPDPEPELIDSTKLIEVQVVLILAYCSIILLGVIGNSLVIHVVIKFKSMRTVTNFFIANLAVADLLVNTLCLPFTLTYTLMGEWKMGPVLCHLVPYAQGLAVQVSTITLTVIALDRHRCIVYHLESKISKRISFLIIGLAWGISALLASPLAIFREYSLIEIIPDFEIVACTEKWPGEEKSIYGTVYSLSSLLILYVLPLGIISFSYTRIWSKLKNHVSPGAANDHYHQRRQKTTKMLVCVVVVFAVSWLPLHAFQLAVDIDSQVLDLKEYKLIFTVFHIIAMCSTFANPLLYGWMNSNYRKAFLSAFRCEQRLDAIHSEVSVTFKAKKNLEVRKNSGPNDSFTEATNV

[3] = target: T2, Neuropeptide Y receptor type 1 (Homo sapiens, UniProt P25929); assay: Fluorescence-based counterscreen for agonists of NPY-Y2: cell-based high-throughput dose response assay for agonists of NPY-Y1.; type: functional
T2 sequence (P25929 whole entry): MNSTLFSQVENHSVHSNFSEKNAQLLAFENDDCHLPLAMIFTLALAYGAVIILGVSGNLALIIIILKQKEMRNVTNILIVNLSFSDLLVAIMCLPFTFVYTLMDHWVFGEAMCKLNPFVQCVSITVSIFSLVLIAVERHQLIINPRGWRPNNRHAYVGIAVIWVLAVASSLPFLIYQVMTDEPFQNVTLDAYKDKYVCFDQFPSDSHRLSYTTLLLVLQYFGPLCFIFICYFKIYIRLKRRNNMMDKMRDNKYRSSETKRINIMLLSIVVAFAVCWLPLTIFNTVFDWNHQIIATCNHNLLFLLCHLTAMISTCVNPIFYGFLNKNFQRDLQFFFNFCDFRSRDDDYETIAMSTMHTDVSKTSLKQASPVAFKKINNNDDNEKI

[4] = target: T3, Heat shock factor protein 1 (Mus musculus, UniProt P38532); assay: inhibition of MG132-induced HSE-luciferase signal, confirmation, cell-based, NIH3T3, luminescence, dose retest (AID 2382); type: functional;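 also: NIH3T3 fibroblasts with HSF1-driven luciferase reporter stressed by proteasome inhibitor MG132; luminescence from HSF1-driven luciferase expression after 8 hours of MG132 stress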
T3 sequence (P38532 whole entry): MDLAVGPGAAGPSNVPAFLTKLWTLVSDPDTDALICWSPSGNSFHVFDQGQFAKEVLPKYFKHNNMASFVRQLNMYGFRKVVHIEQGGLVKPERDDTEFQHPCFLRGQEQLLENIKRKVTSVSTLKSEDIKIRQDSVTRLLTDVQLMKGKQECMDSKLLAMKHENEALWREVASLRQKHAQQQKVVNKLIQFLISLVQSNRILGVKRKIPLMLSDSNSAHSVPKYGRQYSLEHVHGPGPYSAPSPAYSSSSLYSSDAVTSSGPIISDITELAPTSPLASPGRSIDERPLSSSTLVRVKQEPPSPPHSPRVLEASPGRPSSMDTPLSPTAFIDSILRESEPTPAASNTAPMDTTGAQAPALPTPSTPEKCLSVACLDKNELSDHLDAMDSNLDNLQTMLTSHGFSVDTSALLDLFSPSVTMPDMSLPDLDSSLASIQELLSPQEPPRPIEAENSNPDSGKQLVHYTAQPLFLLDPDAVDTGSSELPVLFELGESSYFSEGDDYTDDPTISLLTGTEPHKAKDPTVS

[5] = target: Genome polyprotein (dengue virus type 2, UniProt P29990); assay: Dengue-2 NS5 methyltransferase inhibitors, primary screen, biochemical, confirmation dose response (AID 588689); type: functional
Chain of Genome polyprotein (P29990 2492-3391 limits assumed): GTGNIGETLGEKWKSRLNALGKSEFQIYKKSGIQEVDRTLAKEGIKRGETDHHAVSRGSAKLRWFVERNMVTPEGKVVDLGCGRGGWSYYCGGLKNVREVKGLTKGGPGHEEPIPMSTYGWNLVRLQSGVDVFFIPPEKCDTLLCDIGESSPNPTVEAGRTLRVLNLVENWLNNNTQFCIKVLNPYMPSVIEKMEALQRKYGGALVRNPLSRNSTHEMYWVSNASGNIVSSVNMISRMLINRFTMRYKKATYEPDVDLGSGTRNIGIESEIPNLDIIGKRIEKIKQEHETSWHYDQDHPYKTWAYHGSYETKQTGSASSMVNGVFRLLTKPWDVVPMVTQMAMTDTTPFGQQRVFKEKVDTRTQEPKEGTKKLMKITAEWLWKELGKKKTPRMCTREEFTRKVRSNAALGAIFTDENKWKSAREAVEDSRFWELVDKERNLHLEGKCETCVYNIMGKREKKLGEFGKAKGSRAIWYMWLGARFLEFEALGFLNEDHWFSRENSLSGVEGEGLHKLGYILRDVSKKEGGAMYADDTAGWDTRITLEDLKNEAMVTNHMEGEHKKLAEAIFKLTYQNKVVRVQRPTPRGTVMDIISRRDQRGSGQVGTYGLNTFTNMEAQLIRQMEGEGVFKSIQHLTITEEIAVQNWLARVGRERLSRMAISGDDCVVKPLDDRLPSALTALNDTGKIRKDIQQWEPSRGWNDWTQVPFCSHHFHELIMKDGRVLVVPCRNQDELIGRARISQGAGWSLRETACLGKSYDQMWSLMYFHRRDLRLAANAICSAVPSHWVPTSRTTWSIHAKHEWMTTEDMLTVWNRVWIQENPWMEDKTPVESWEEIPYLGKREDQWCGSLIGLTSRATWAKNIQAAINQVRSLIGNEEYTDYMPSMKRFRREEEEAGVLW

[6] = target: T4, High affinity choline transporter 1 (Homo sapiens, UniProt Q9GZV3); assay: CHT inhibitors, dose response, cell-based, 5-point CRC, membrane potential dye (AID 504840); type: functional
T4 sequence (Q9GZV3 whole entry): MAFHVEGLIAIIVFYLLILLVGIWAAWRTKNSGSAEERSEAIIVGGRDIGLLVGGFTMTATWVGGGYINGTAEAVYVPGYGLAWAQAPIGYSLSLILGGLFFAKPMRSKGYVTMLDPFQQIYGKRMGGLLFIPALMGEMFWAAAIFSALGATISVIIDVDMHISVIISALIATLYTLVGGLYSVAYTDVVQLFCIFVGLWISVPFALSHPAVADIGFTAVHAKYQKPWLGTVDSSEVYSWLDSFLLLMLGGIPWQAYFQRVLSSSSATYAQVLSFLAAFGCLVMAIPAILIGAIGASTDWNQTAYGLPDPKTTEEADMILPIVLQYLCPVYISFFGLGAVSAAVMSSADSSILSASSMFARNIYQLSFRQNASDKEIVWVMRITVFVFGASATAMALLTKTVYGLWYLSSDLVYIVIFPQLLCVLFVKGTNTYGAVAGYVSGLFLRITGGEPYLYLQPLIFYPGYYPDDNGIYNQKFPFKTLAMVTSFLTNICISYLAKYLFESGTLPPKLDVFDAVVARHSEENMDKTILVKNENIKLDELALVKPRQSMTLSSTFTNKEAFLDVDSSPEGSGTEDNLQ

[7] = system: Vero; assay: Vero cell cytotoxicity, cytotoxicity control for flavivirus capping enzyme inhibitors (AID 588742); type: functional; details: Chlorocebus sabaeus
[8] = target: T5, Replicative DNA helicase DnaB (Mycobacterium tuberculosis, UniProt P9WMR3); assay: DnaB intein splicing inhibitors, dose response, biochemical, cell-free fluorescence (AID 449749); type: functional
T5 sequence (P9WMR3 whole entry): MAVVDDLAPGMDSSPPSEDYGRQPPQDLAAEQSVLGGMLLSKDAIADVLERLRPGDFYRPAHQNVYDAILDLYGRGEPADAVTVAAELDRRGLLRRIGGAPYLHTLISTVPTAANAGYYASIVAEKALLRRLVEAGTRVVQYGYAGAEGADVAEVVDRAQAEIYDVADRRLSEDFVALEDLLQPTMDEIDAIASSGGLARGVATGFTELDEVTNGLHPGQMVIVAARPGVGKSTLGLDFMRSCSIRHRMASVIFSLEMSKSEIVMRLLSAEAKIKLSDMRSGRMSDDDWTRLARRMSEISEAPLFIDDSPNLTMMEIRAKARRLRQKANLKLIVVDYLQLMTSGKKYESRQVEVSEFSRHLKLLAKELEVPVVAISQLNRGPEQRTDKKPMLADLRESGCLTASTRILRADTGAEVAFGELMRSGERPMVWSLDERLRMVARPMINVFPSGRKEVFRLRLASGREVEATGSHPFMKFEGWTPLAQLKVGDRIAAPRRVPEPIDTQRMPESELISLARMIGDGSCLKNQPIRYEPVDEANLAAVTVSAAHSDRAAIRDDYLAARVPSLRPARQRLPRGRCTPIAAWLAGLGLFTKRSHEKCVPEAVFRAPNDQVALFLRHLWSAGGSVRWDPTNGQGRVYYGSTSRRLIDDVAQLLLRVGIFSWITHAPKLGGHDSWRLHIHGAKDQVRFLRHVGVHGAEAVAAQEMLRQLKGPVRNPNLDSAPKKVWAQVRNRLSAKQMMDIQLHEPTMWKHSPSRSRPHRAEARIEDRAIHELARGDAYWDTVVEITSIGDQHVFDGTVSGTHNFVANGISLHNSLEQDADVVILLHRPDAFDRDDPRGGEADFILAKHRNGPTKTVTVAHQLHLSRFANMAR

[9] = Intein inhibitors as potential Tuberculosis drugs, a cytotoxicity screen. [Related pubchem assays (depositor defined):AID2221, AID2223, AID434968, AID435010, AID449749, AID449750, AID489010]; type: functional
[10] = Shn3 3'UTR reporter inhibitors, dose response, cell-based, Clone20 osteoblasts, firefly luciferase, cherry-picked (AID 624132); type: functional;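 also: firefly luciferase luminescence from reporter carrying the Shn3 3'UTR in osteoblasts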
[11] = target: Potassium voltage-gated channel subfamily KQT member 2 (Rattus norvegicus, UniProt O88943, W236L); assay: KCNQ2 channel potentiators, dose response, mechanism study for KCNQ2 potentiator project, cell-based, automated electrophysiology (AID 2603); type: functional
Chain of Potassium voltage-gated channel subfamily KQT member 2 (O88943 whole entry W236L, the tested form may be a part): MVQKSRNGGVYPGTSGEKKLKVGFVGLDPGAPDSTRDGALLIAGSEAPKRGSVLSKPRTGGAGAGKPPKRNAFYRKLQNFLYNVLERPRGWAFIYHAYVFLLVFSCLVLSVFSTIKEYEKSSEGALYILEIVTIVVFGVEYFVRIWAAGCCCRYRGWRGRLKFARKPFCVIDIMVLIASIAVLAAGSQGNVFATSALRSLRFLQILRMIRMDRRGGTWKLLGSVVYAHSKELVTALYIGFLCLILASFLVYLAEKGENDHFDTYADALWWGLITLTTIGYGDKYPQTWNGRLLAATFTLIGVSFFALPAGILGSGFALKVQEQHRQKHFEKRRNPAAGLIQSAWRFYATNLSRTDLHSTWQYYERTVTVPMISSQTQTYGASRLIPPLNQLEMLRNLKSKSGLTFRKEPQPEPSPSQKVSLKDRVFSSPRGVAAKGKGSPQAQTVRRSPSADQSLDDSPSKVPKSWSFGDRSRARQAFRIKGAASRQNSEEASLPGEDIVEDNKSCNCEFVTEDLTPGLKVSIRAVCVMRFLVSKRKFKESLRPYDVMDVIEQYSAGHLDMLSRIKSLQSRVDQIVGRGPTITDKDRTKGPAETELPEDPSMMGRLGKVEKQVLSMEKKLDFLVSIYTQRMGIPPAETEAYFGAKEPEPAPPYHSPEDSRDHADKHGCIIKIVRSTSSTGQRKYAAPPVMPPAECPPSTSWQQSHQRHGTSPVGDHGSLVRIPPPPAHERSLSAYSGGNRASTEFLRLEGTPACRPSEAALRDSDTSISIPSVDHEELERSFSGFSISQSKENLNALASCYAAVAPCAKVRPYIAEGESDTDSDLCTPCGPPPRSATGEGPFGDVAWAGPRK

[12] = target: Hepatocyte nuclear factor 4-alpha (Homo sapiens, UniProt P41235); type: functional, cell-based;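 also: biochemical luminescence-based dose-response counterscreen measuring inhibition of HNF4 dimerization, run alongside a screen for blockers of ABHD5–perilipin-5 interaction; split luciferase complementation of HNF4 fusion proteins in cell lysate measuring dimerization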
Chain of Hepatocyte nuclear factor 4-alpha (P41235 whole entry, the tested form may be a part): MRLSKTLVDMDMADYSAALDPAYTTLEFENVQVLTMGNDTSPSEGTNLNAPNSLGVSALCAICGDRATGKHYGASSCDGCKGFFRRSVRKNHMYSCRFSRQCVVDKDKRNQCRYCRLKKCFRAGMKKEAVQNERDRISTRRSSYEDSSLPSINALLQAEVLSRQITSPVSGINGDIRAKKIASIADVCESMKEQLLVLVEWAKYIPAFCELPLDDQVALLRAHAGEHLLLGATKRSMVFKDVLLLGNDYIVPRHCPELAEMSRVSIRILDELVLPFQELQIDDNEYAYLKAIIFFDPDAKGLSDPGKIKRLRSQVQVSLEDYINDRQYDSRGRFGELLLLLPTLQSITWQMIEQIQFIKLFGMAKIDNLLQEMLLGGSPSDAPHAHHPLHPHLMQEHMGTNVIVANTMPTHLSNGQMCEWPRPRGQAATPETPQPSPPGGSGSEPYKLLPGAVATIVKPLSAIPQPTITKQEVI

[13] = target: T6, Protein RecA (Mycobacterium tuberculosis, UniProt P9WHJ3); assay: Fluorescence Cell-Free Homogeneous Dose Retest to Identify Inhibitors of RecA-Intein Splicing Activity. [Related pubchem assays (depositor defined):AID2097, AID2223, AID489010, AID492950]; type: functional
T6 sequence (P9WHJ3 whole entry): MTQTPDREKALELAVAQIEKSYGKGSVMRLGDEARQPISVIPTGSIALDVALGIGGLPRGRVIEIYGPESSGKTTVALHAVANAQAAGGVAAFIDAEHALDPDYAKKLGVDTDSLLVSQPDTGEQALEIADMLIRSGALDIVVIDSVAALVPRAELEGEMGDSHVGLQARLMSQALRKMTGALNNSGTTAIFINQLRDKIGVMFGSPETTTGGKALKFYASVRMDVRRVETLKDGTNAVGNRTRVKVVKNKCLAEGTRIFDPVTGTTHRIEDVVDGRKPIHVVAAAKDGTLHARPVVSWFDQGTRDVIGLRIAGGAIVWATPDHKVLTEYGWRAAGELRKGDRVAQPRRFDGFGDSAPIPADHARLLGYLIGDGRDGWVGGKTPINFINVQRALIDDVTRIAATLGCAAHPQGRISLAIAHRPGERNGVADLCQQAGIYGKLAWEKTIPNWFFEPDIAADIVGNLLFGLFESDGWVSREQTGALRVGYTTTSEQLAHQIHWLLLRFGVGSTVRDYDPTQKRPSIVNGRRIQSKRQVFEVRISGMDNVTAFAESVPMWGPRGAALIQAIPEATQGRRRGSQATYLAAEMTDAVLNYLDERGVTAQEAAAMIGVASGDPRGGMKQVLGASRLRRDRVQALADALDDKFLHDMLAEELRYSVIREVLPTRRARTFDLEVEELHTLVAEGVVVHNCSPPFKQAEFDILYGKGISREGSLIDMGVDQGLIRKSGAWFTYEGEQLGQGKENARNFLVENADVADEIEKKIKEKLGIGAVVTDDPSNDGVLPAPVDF

[14] = target: T4, High affinity choline transporter 1; assay: CHT inhibitors, dose response, cell-based, 10-point CRC, membrane potential dye (AID 588401); type: functional;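 also: membrane potential dye fluorescence of choline-evoked depolarization via CHT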
[15] = control 3'UTR Renilla luciferase suppression, dose response, counter-screen for Shn3 inhibitor project, cell-based, Clone20-Shn3RL, cherry-picked (AID 624133); type: functional
[16] = system: HeLa; assay: Cytotoxicity counterscreen assay for transcriptional activators of heat shock protein 70 (Hsp70). [Related pubchem assays: 1203, 1252 ]; type: functional; details: Homo sapiens;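 also: cells exposed to compound for 16 hours before readout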
[17] = Luminescence-based counterscreen assay for KLF5 inhibitors: dose response cell-based high throughput screening assay to identify cytotoxic compounds using the IEC-6 intestinal epithelial cell line. [Related pubchem assays: 1700 (Primary screen.), 1834 (Confirmation screen.), 1858 (Summary AID.), 1905 (Counterscreen.)]; type: functional
[18] = NIH-3T3 fibroblast cytotoxicity, dose response, cytotoxicity control, cell-based, fluorescence, Alamar Blue, secondary assay (AID 2327); type: functional;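 also: NIH-3T3 mouse fibroblasts cultured with fluconazole at 8 µg/mL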
[19] = cytotoxicity toward NIH3T3 fibroblasts, dose response, counter-screen, cell-based, ATP luminescence, mouse fibroblasts (AID 2010); type: functional;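 also: cells exposed to compound for about 90 hours before reading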
[20] = inhibitors of intracellular T. cruzi replication, confirmation, NIH3T3 host cells, beta-gal luminescence (AID 2044); type: functional, cell-based;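 also: intracellular parasites grown in NIH/3T3 mouse fibroblasts as host cells; luminescent beta-galactosidase reporter signal from transgenic T. cruzi replicating inside host cells; inhibitors lower the luminescence signal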
[21] = C. albicans growth with fluconazole, confirmation, fluorescence, retest (AID 2467); type: functional, cell-based
[22] = target: Nonstructural protein 1 (Influenza A virus, UniProt Q194T2); type: functional, Influenza A virus (A/California/07/2009(H1N1))
Chain of Nonstructural protein 1 (Q194T2 whole entry): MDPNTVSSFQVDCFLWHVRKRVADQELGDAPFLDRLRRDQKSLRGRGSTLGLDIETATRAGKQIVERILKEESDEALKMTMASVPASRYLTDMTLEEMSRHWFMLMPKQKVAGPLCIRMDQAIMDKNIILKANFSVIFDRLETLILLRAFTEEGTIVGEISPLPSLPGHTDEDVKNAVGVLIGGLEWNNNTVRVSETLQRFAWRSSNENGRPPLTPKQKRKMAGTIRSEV

[23] = cells; type: functional, cell-based
[24] = system: HEK293; assay: inhibitors of LMP1-driven NF-kB reporter, dose response, cell-based, HEK293, luciferase, cherry-pick (AID 588343); type: functional; details: Homo sapiens
[25] = system: INS1; assay: beta cell apoptosis inhibitors, cytokine rescue, dose response, luminescence, retest (AID 449756); type: functional, cell-based; details: Rattus norvegicus;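 also: cell death triggered by IL-1 beta plus TNF-alpha plus IFN-gamma mixture; protective hits raise ATP signal compared with cytokine alone wells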
[26] = cells; type: functional, cell-based; remark: listed apart in the source
[27] = cells
[28] = target: T2, Neuropeptide Y receptor type 1; type: functional
[29] = HEK293T cell cytotoxicity, dose response, cytotoxicity control for HIV Vif inhibitor project, cherry-picks (AID 652208); type: functional, cell-based
[30] = HEK293 cell cytotoxicity, dose response, cytotoxicity control, dry powder samples (AID 720567); type: functional, cell-based
[31] = Luminescence Cell-Based Dose Retest to Confirm Inhibitors of Cancer Stem Cells. [Related pubchem assays (depositor defined):AID2717, AID2721]; type: functional; details: Homo sapiens
[32] = target: T1, Neuropeptide Y receptor type 2; type: functional, cell-based

## Cc1c(C(=O)O)[nH]c2ccc([N+](=O)[O-])cc12
[1]
  EC50: 6.29 µM (active)
[2]
  EC50: 6.99 µM (active)
[3]
  EC50: 6.64 µM (active)

## CC(C)c1nnc(NC(=O)c2nc(S(=O)(=O)Cc3ccc(F)cc3)ncc2Cl)s1
[4]
  EC50: 3.33 µM (active)
[5]
  IC50: 96 µM (active)
[6]
  IC50: 6.08 µM (active)
[7]
  CC50: 27.1 µM (active)
[8]
  AC50: 3.54 µM (active)
[9]
  CC50: 28.1 µM (active)
[10]
  AC50: 2.83 µM (active)
[11]
  EC50: 4.47 µM (active)
[12]
  IC50: 4.69 µM (active)
[13]
  EC50: 2.73 µM (active)
[14]
  IC50: 4.47 µM (active)
[15]
  AC50: 4.34 µM (active)

## CCOc1ccc(NC(=O)c2ccc(NC(S)=NC3CC3)cc2)cc1
[16]
  CC50: > 99 µM (not active)

## O=C(N/N=C/c1c(O)ccc2ccccc12)c1cccnc1
[17]
  IC50: 3.67 µM (active)
[18]
  EC50: > 160 µM (inactive)
[19]
  EC50: 9.03 µM (active)
[20]
  EC50: 3.14 µM (active)
[21]
  EC50: 1.3 µM (active)
[22]
  IC50: 12.1 µM (active)
[23]
  EC50: 8.55 µM (active)
[24]
  AC50: 7.53 µM (active)
[25]
  AC50: 794 nM (active)
[26]
  EC50: > 350 µM (not active)

## Cc1c(Cc2ccccc2)c(=O)oc2cc(O)cc(O)c12
[27]
  IC50: 36.1 µM (active)

## Cc1ccc(CCC(=O)Nc2ncc(Cc3cc(Cl)ccc3Cl)s2)o1
[28]
  IC50: 7.27 µM (active)
[29]
  AC50: 34.7 µM (active)
[30]
  AC50: 7.96 µM (active)
[31]
  AC50: 251 nM (active)
[32]
  IC50: 9.88 µM (active)
